Experiment [1] relates to ECa-109 cell line. The experiment can be described thus: Induction of ROS-mediated apoptosis in human ECa-109 cells assessed as necrotic cells at 2 uM incubated for 48 hrs in presence of NAC by annexin V-PE and 7-AAD staining based flow cytometry analysis (reference value: 1.09 %). Format: functional. A general note: Flow cytometry measures light scatter and fluorescence of single cells or particles in a stream.

For experiment [2], the system named is ECa-109 cell line. Briefly: Induction of cell cycle arrest in human ECa-109 cells assessed as accumulation in G0/G1 phase at 1 uM incubated for 48 hrs by PI staining based flow cytometry analysis (reference value: 52.28 %). The class given is functional.
The subject of experiment [3] is ECa-109 cell line. The experiment can be described thus: Induction of ROS-mediated apoptosis in human ECa-109 cells assessed as early apoptotic cells at 2 uM incubated for 48 hrs by annexin V-PE and 7-AAD staining based flow cytometry analysis (reference value: 2.70 %). The class given is functional.
Experiment [4] relates to ECa-109 cell line. The experiment can be described thus: Induction of ROS-mediated apoptosis in human ECa-109 cells assessed as viable cells at 4 uM incubated for 48 hrs in presence of NAC by annexin V-PE and 7-AAD staining based flow cytometry analysis (reference value: 94 %). Format: functional. To be noted: read-out: Activity.
The subject of experiment [5] is ECa-109 cell line. The experiment can be described thus: Induction of ROS-mediated apoptosis in human ECa-109 cells assessed as late apoptotic cells at 1 uM incubated for 48 hrs in presence of NAC by annexin V-PE and 7-AAD staining based flow cytometry analysis (reference value: 2.98 %). The class given is functional.
Experiment [6] relates to ECa-109 cell line. Briefly: Induction of ROS-mediated apoptosis in human ECa-109 cells assessed as early apoptotic cells at 4 uM incubated for 48 hrs in presence of NAC by annexin V-PE and 7-AAD staining based flow cytometry analysis (reference value: 1.90 %). The class given is functional.
Experiment [7] concerns ECa-109 cell line. Briefly: Induction of cell cycle arrest in human ECa-109 cells assessed as accumulation in G2/M phase at 2 uM incubated for 48 hrs by PI staining based flow cytometry analysis (reference value: 8.39 %). The class given is functional.
The subject of experiment [8] is ECa-109 cell line. Briefly: Induction of apoptosis in human ECa-109 cells assessed as early apoptotic cells at 1 uM incubated for 48 hrs by annexin-V-FITC and PI staining based fluorescence microscopic analysis (reference value: 0.971 %). Format: functional.
Experiment [9] relates to ECa-109 cell line. The experiment can be described thus: Induction of apoptosis in human ECa-109 cells assessed as viable cells at 4 uM incubated for 48 hrs by annexin-V-FITC and PI staining based fluorescence microscopic analysis (reference value: 95.8 %). The class given is functional. To be noted: read-out: Activity.
Experiment [10] has as its system ECa-109 cell line. The experiment can be described thus: Induction of apoptosis in human ECa-109 cells assessed as necrotic cells at 4 uM incubated for 48 hrs by annexin-V-FITC and PI staining based fluorescence microscopic analysis (reference value: 1.19 %). Format: functional.
The test system of experiment [11] is ECa-109 cell line. Briefly: Induction of cell cycle arrest in human ECa-109 cells assessed as accumulation in G0/G1 phase at 2 uM incubated for 48 hrs by PI staining based flow cytometry analysis (reference value: 52.28 %). The class given is functional.
In experiment [12] the test system is ECa-109 cell line. Briefly: Induction of apoptosis in human ECa-109 cells at 1 to 4 uM incubated for 48 hrs by AO/PI staining based fluorescence microscopic analysis. Format: functional, cell-based. To be noted: dose 1-4 µM.
The test system of experiment [13] is ECa-109 cell line. The experiment can be described thus: Induction of ROS-mediated apoptosis in human ECa-109 cells assessed as necrotic cells at 4 uM incubated for 48 hrs by annexin V-PE and 7-AAD staining based flow cytometry analysis (reference value: 0.729 %). Format: functional.
The subject of experiment [14] is ECa-109 cell line. The experiment can be described thus: Induction of ROS-mediated apoptosis in human ECa-109 cells assessed as late apoptotic cells at 1 uM incubated for 48 hrs by annexin V-PE and 7-AAD staining based flow cytometry analysis (reference value: 3.89 %). Format: functional.
Experiment [15] has as its system SGC-7901. Briefly: Induction of ROS-mediated apoptosis in human SGC-7901 cells assessed as viable cells at 2 uM incubated for 48 hrs in presence of NAC by annexin V-PE and 7-AAD staining based flow cytometry analysis (reference value: 94.8 %). The class given is functional. To be noted: read-out: Activity.
Experiment [16] concerns SGC-7901. The experiment can be described thus: Induction of ROS-mediated apoptosis in human SGC-7901 cells assessed as early apoptotic cells at 4 uM incubated for 48 hrs by annexin V-PE and 7-AAD staining based flow cytometry analysis (reference value: 1.89 %). Format: functional.
Experiment [17] has as its system SGC-7901. Briefly: Induction of apoptosis in human SGC-7901 cells assessed as concentrated chromatin at 1 to 4 uM incubated for 48 hrs by Hoechst staining based fluorescence microscopic analysis. The class given is functional, cell-based. Particulars: dose 1-4 µM.
For experiment [18], the system named is SGC-7901. Briefly: Induction of ROS-mediated apoptosis in human SGC-7901 cells assessed as early apoptotic cells at 4 uM incubated for 48 hrs in presence of NAC by annexin V-PE and 7-AAD staining based flow cytometry analysis (reference value: 1.15 %). The class given is functional.
In experiment [19] the test system is SGC-7901. Briefly: Induction of ROS-mediated apoptosis in human SGC-7901 cells assessed as viable cells at 4 uM incubated for 48 hrs in presence of NAC by annexin V-PE and 7-AAD staining based flow cytometry analysis (reference value: 94.8 %). The class given is functional. Particulars: read-out: Activity.
Experiment [20] has as its system SGC-7901. Briefly: Induction of apoptosis in human SGC-7901 cells at 1 to 4 uM incubated for 48 hrs by AO/PI staining based fluorescence microscopic analysis. Particulars: dose 1-4 µM. Format: functional, cell-based.
For experiment [21], the system named is SGC-7901. Briefly: Induction of cell cycle arrest in human SGC-7901 cells assessed as accumulation in G0/G1 phase at 1 uM incubated for 48 hrs by PI staining based flow cytometry analysis (reference value: 57.39 %). Format: functional.
Experiment [22] in a line: Selectivity index, ratio of IC50 for cytotoxicity against human HL7702 cells to IC50 for cytotoxicity against human SGC-7901 cells.
Experiment [23] has as its system SGC-7901. The experiment can be described thus: Induction of ROS-mediated apoptosis in human SGC-7901 cells assessed as necrotic cells at 1 uM incubated for 48 hrs in presence of NAC by annexin V-PE and 7-AAD staining based flow cytometry analysis (reference value: 0.623 %). The class given is functional.
The test system of experiment [24] is SGC-7901. Briefly: Induction of apoptosis in human SGC-7901 cells assessed as early apoptotic cells at 2 uM incubated for 48 hrs by annexin-V-FITC and PI staining based fluorescence microscopic analysis (reference value: 1.87 %). Format: functional.
In experiment [25] the test system is SGC-7901. Briefly: Induction of mitochondrial membrane potential disruption in human SGC-7901 cells incubated for 48 hrs by JC-1 dye based flow cytometry analysis. To be noted: Mitochondria, dose 1-4 µM.
Experiment [26] deals with SGC-7901. Briefly: Induction of cell cycle arrest in human SGC-7901 cells assessed as accumulation in G2/M phase at 2 uM incubated for 48 hrs by PI staining based flow cytometry analysis (reference value: 11.48 %). The class given is functional.
In experiment [27] the test system is SGC-7901. The experiment can be described thus: Induction of apoptosis in human SGC-7901 cells assessed as late apoptotic cells at 2 uM incubated for 48 hrs by annexin-V-FITC and PI staining based fluorescence microscopic analysis (reference value: 3.87 %). Format: functional.
In experiment [28] the test system is SGC-7901. Briefly: Induction of cell cycle arrest in human SGC-7901 cells assessed as accumulation in S phase at 1 uM incubated for 48 hrs by PI staining based flow cytometry analysis (reference value: 31.13 %). The class given is functional.
Experiment [29] relates to SGC-7901. Briefly: Induction of ROS-mediated apoptosis in human SGC-7901 cells assessed as early apoptotic cells at 1 uM incubated for 48 hrs by annexin V-PE and 7-AAD staining based flow cytometry analysis (reference value: 1.89 %). The class given is functional.
The subject of experiment [30] is SGC-7901. The experiment can be described thus: Induction of ROS-mediated apoptosis in human SGC-7901 cells assessed as late apoptotic cells at 2 uM incubated for 48 hrs in presence of NAC by annexin V-PE and 7-AAD staining based flow cytometry analysis (reference value: 3.45 %). The class given is functional.

Active and inactive are the calls of the source. No cut-off for these calls is given here.

This is an account of results in ChEMBL document CHEMBL4706545, “Antiproliferative effect of mitochondria-targeting allobetulin 1,2,3-triazolium salt derivatives and their mechanism of inducing apoptosis of cancer cells” (Eur J Med Chem, 2020).

As to `COc1ccccc1Cn1n[n+](C)c2c1C(C)(C)[C@@H]1CC[C@]3(C)[C@H](CC[C@@H]4[C@H]5[C@H]6OC[C@@]5(CCC6(C)C)CC[C@]43C)[C@@]1(C)C2.[I-]`, the Activity with ECa-109 cell line [1] turned out to be 5.48%; with ECa-109 cell line [2], 54.16%; in the experiment with ECa-109 cell line [3], 11.5%; with ECa-109 cell line [5], 13.7%; with ECa-109 cell line [6] it was 3.5%; in the experiment on ECa-109 cell line [7] it was 16.84%. For the same compound, the Activity with ECa-109 cell line [8] worked out at 17.4%; in the experiment with ECa-109 cell line [10] it was 3.58%; with ECa-109 cell line [11], 42.96%; in the experiment with ECa-109 cell line [13], 2.19%; with ECa-109 cell line [14], 18.6%. The viability at 4 µM in the experiment on ECa-109 cell line [4] came out at 13.8%; in the experiment on ECa-109 cell line [9], 1.26%. Further, in the experiment with ECa-109 cell line [12], the result was Active.

As to `C[n+]1nn(Cc2c(F)cccc2Cl)c2c1C[C@]1(C)[C@H]3CC[C@@H]4[C@H]5[C@H]6OC[C@@]5(CCC6(C)C)CC[C@@]4(C)[C@]3(C)CC[C@H]1C2(C)C.[I-]`, the viability at 2 µM with SGC-7901 [15] turned out to be 71.3%. Besides, the Activity was 0.199% with SGC-7901 [16]; 4.28% with SGC-7901 [18]; 80.42% in the experiment with SGC-7901 [21]; 1.21% in the experiment with SGC-7901 [23]; 25.4% in the experiment with SGC-7901 [24]; “Dose-dependent effect” with SGC-7901 [25]. Moreover, the Activity with SGC-7901 [26] is listed as 9.6%; in the experiment with SGC-7901 [27] it was 8.46%; in the experiment on SGC-7901 [28] it was 14.19%; in the experiment with SGC-7901 [29], 13.7%; with SGC-7901 [30], 8.6%. Moreover, the outcome in the experiment with SGC-7901 [17] and in the experiment with SGC-7901 [20] was Active. In the experiment on SGC-7901 [19], the viability at 4 µM was determined as 15.3%. In addition, the “Ratio IC50” value in experiment [22] is 2.08.
